Data set [1] concerns CHOP. Nature of the data set: CHOP expression in pancreatic cells (βTC6) under endoplasmic reticulum stress (RT-PCR). In kind it is cell-based, Mouse. Particulars: pretreatment 4 h, tunicamycin 0.16 μM 24 h. The protocol: (§1) The lysate was preserved at −80° C. until use.
(§2) The internal standard gene used was GAPDH gene.

The subject of data set [2] is GRP78. Put plainly: GRP78 expression in adipocytes under endoplasmic reticulum stress (RT-PCR). In kind it is cell-based, Human. Conditions: pretreatment 24 h, tunicamycin 0.65 μM 24 h. On the procedure:
(§3) Adipocytes were prepared as follows. Normal human subcutaneous preadipocytes were reconstituted in a T75 flask using a growth medium (PBM-2 medium, Cat. No. PT-8002, Lonza, supplemented with 10% FBS, 2 mM L-glutamine, 50 μg/mL gentamycin, and 37 ng/mL amphotericin-B), and precultured for 3 days in a CO2 incubator (37° C., 5% CO2; the same holds true for the description below).
as §1, §2

For data set [3], the system named is CHOP. Nature of the data set: CHOP expression in adipocytes under endoplasmic reticulum stress (RT-PCR). In kind it is cell-based, Human. Particulars: pretreatment 24 h, tunicamycin 0.65 μM 24 h. The protocol:
as §3, §1, §2

In data set [4] the test system is GRP78. Put plainly: GRP78 expression in pancreatic cells (βTC6) under endoplasmic reticulum stress (RT-PCR). In kind it is cell-based, Mouse. Conditions: pretreatment 4 h, tunicamycin 0.16 μM 24 h. The protocol:
as §1, §2

In data set [5] the test system is CHOP. Put plainly: CHOP expression in neuronal cells under endoplasmic reticulum stress (RT-PCR). In kind it is cell-based, Rat. Particulars: pretreatment 1 h, tunicamycin 0.16 μM 24 h. On the procedure:
(§4) Neuronal cells were prepared as follows. PC12 cells were reconstituted by seeding at 2×10^6 cells/flask to a collagen IV-coated flask, and precultured for 3 days in the growth medium in a CO2 incubator.
as §1, §2

Data set [6] concerns GRP78. Put plainly: GRP78 expression in neuronal cells under endoplasmic reticulum stress (RT-PCR). In kind it is cell-based, Rat. Conditions: pretreatment 24 h, tunicamycin 1.0 μM 24 h. On the procedure: as §4, §1, §2
Data set [7] relates to CHOP. Conditions: pretreatment 4 h, tunicamycin 0.65 μM 24 h. The protocol:
(§5) Steviol was evaluated for its influence on endoplasmic reticulum stress in each type of cell by using endoplasmic reticulum stress markers CHOP and GRP78 as an index. The test cells used were neuronal cells (induced from PC12 cells), adipocytes (normal human subcutaneous preadipocytes, Cat. No. PT-5020, Lonza Group AG), hepatocytes (HepG2, Cat. No. JCRB1054, JCRB) and pancreatic cells (βTC6, ATCC® CRL-11506).
(§6) Hepatocytes were prepared as follow. HepG2 cells were seeded to a T75 flask and precultured for 1 day in a CO2 incubator using a growth medium (DMEM (high glucose, Cat. No. D5796, Sigma-Aldrich) supplemented with 10% FBS (Cat. No. 172012, Sigma-Aldrich), 1% penicillin-streptomycin (Cat. No. 09367-34, Nacalai Tesque, Inc.)).
(§7) 4PA (P21005, Sigma-Aldrich Co., LLC) was dissolved in a medium and then added at a predetermined concentration to a differentiation medium or a growth medium.
(§8) After the completion of endoplasmic reticulum stress induction treatment, the expression levels of CHOP and GRP78 were measured to evaluate the degree of endoplasmic reticulum stress. First, FasteLane lysate (RNA) was prepared for RNA extraction using FastLane Cell Probe kit (Cat. No. 216413, Qiagen N.V.). After removal of the medium, each well was washed by the addition of 125 μL of Buffer FCW and its immediate removal. Then, 50 μL of Cell processing mix was added to each well, followed by incubation at room temperature for 5 minutes to prepare FasteLane lysate. Next, the FasteLane lysate was transferred to a PCR tube and incubated at 75° C. for 5 minutes. The lysate was preserved at −80° C. until use.
(§9) Gene expression analysis was carried out by the following procedures. One Step real-time RT-PCR was performed with the composition of Table 8 using QuantiTect Probe RT-PCR Kit attached to FastLane Cell Probe kit.
(§10) RT-PCR reaction was performed under conditions of 50° C. for 30 minutes, 95° C. for 15 minutes, and (94° C. for 15 seconds and 60° C. for 60 seconds)×40 cycles. The internal standard gene used was GAPDH gene. A relative expression level was calculated by the ΔΔCt method. Significant difference among tunicamycin addition groups (vehicle group vs positive control group/steviol addition group) was tested by the Dunnett test.

In data set [8] the test system is GRP78. Particulars: pretreatment 4 h, tunicamycin 0.65 μM 24 h. The protocol: as §5, §6, §7, §8, §9, §10
A further data set deals with PC12 cells (clone HS). Put plainly: Neurite elongation-promoting effect on PC12 cells (neurite length per cell, Operetta CLS). In kind it is cell-based, Rat. Conditions: positive control, 50 ng/mL NGF, 3 days, negative control=100%. The protocol: PC12 cells (clone HS) were precultured using a growth medium in the same manner as in Example 1. […] The cells thus cultured were subjected to cell membrane staining using Cell Membrane Stain attached to Neurite Outgrowth Staining Kit (Thermo Fisher Scientific Inc.) and nuclear staining using Hoechst 33342 (Cat. No. H3570). Specifically, the medium was replaced with 100 μL of a fixative and staining solution (prepared by adding a 1/1000 amount each of Cell Membrane Stain (1000×) and Hoechst 33342 and a 1/25 amount of a formaldehyde solution (Cat. No. 061-00416, FUJIFILM Wako Pure Chemical Corp.) to DPBS (++) (Cat. No. 14040133, Thermo Fisher Scientific Inc.)), followed by incubation for 20 minutes in a CO2 incubator (5% CO2, 37° C., humid). […] Photographing and quantitative analysis were carried out using Operetta CLS (Perkin Elmer, Inc.), and a neurite length per cell was calculated. Nine fields of view at the center of each well were photographed using a 10× objective lens. A test medium supplemented with 50 ng/mL NGF was used as a positive control, and a vehicle control composed of a differentiation medium supplemented with 0.1% DMSO (final concentration) was used as a negative control.

Like-named read-outs stand apart in the source and are kept apart here.

Regarding `O=C(O)CCCc1ccccc1` [4PA, reference compound], the “Expression level of CHOP in pancreatic cells (relative to GAPDH, untreated=1)” value with CHOP [1] (4PA 0.3 mM) stood at 2.53; in the data set with CHOP [1] (4PA 1 mM) it was 1.78; in the data set on CHOP [1] (4PA 3 mM) it was 1.71; in the data set on CHOP [1] (4PA 10 mM), 2.47. Also, the “Expression level of GRP78 in adipocytes (relative to GAPDH, untreated=1)” value in the data set with GRP78 [2] (4PA 0.1 mM) was 4.78; with GRP78 [2] (4PA 1 mM), 4.25. For the same compound, the “Expression level of CHOP in adipocytes (relative to GAPDH, untreated=1)” value with CHOP [3] (4PA 0.1 mM) was 3.52; in the data set on CHOP [3] (4PA 1 mM), 3.22. Also, the “Expression level of GRP78 in pancreatic cells (relative to GAPDH, untreated=1)” value with GRP78 [4] (4PA 0.3 mM) was 2.33; with GRP78 [4] (4PA 1 mM) it was 2.37; in the data set on GRP78 [4] (4PA 3 mM), 1.66; in the data set on GRP78 [4] (4PA 10 mM) it was 1.22. Further, the “Expression level of CHOP in neuronal cells (relative to GAPDH, untreated=1)” value with CHOP [5] (4PA 0.1 mM) turned out to be 6.04; in the data set with CHOP [5] (4PA 0.3 mM), 5.87. Further, the “Expression level of GRP78 in neuronal cells (relative to GAPDH, untreated=1)” value in the data set on GRP78 [6] (4PA 0.1 mM) was determined as 19.72; with GRP78 [6] (4PA 0.3 mM), 20.05. Also, the “Expression level of CHOP in hepatocytes (relative to GAPDH, untreated=1)” value is given as 3.23 in the data set with CHOP [7] (4PA 0.1 mM), 2.79 in the data set with CHOP [7] (4PA 0.3 mM) and 2.13 in the data set on CHOP [7] (4PA 1 mM). The entries for the “Expression level of GRP78 in hepatocytes (relative to GAPDH, untreated=1)” value in the data set with GRP78 [8] (4PA 0.1 mM), in the data set with GRP78 [8] (4PA 0.3 mM) and in the data set on GRP78 [8] (4PA 1 mM) were 2.82, 2.49 and 1.96, respectively.
Consider “IGF-1: positive control, 100 ng/mL IGF-1 (Cat. No. SRP4121, Sigma-Aldrich)”, for which, in the data set on CHOP [5] (IGF-1 100 ng/mL), the “Expression level of CHOP in neuronal cells (relative to GAPDH, untreated=1)” value is reported as 5.97. The “Expression level of GRP78 in neuronal cells (relative to GAPDH, untreated=1)” value in the data set on GRP78 [6] (IGF-1 100 ng/mL) is 19.77.
As for “NGF: positive control, 50 ng/mL NGF (Cat. No. 13257019, Thermo Fisher Scientific), differentiation inducer”, in the data set with PC12 cells (clone HS), the “Relative neurite length (%)” value stood at 269.4%.

(Values after patent US20230064324A1, “NEW USES FOR STEVIOL” (SUNTORY HOLDINGS LIMITED, priority 2019, published 2023).)
